Earlier results in patent US20070009535A1 (priority 2005, published 2007).

Settings: several oncolytics tested in preclinical models

SMILES: O[C@@H](COc1cccc2ncccc12)CN1CCN([C@@H]2c3ccccc3[C@@H]3[C@H](c4ccccc42)C3(F)F)CC1 [zosuquidar]
- pharmacokinetic interactions with oncolytics: minimal pharmacokinetic (PK) interactions
